From the NIST ThermoML archive (doi:10.1021/acs.jced.6b00867)

How the values were obtained:
[1] = refractive index (Na D-line) (dimensionless); xn = mol fraction of the nth substance listed; conditions: 101 kPa, Liquid, Standard Abbe refractometry
[2] = refractive index (Na D-line) (dimensionless); conditions: 101 kPa, Liquid, Standard Abbe refractometry
[3] = 352.2 K; Liquid; Ebulliometric method (Recirculating still)

O=CO [formic acid] + CC1CCC(=O)O1
[1], x1 = 1
Conditions	refractive index
293.2 K	1.3714
298.2 K	1.3699

CC1CCC(=O)O1 (stereo not drawn) [γ-valerolactone] + O=CO
refractive index, [1]
Conditions	293.2 K	298.2 K
x2 = 0	1.4339	1.4316
x2 = 0.0697	1.4314	1.4292
x2 = 0.1233	1.4295	1.4272
x2 = 0.2013	1.4265	1.4245
x2 = 0.3394	1.421	1.4191
x2 = 0.4898	1.4138	1.4118
x2 = 0.593	1.4078	1.4058
x2 = 0.6258	1.4056	1.4036
x2 = 0.6744	1.4021	1.4002
x2 = 0.7799	1.3941	1.3921
x2 = 0.8539	1.3875	1.3856
x2 = 0.8902	1.3839	1.3821
x2 = 0.9828	1.3739	1.3719

CC1CCC(=O)O1 (stereo not drawn) [γ-valerolactone]
[2]
Conditions	refractive index
293.2 K	1.4339
298.2 K	1.4316

O=CO [formic acid]
Conditions	vapor or sublimation pressure [kPa]
[3]	51

[2]
Conditions	refractive index
293.2 K	1.3714
298.2 K	1.3699
